From ChEMBL document CHEMBL2016437, “Synthesis and biological evaluation of novel small non-peptidic HIV-1 PIs: the benzothiophene ring as an effective moiety” (Bioorg Med Chem Lett, 2012)
pIC50: −log10 of the molar value. Active and inactive are the calls of the source. No cut-off for these calls is given here.

Experiments:
[1] = target: Protease (Human immunodeficiency virus 1, UniProt Q9YQ12); assay: Inhibition of wild type HIV-1 protease assessed as hydrolysis of fluorogenic substrate Abz-Thr-Ile-Nle-Phe(NO2)-Gln-Arg after 10 mins by fluorescence assay
[2] = test system: Human immunodeficiency virus type 1 protease (Human immunodeficiency virus 1), Q72874 [V32I]; assay: Inhibition of HIV-1 protease V32I mutant assessed as hydrolysis of fluorogenic substrate Abz-Thr-Ile-Nle-Phe(NO2)-Gln-Arg after 10 mins by fluorescence assay
[3] = test system: Human immunodeficiency virus type 1 protease (Human immunodeficiency virus 1), Q72874 [V82A]; assay: Inhibition of HIV-1 protease V82A mutant assessed as hydrolysis of fluorogenic substrate Abz-Thr-Ile-Nle-Phe(NO2)-Gln-Arg after 10 mins by fluorescence assay
[4] = Cytotoxicity against human U937 cells after 1 to 4 hrs by MTS assay; assay type: cell-based, U-937

Sequence of Protease (Q9YQ12 whole entry): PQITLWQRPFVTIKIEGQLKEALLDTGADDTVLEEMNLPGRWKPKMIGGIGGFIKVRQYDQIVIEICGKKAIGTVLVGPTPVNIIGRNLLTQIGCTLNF

SMILES	pIC50 [1]	inhibition [2]	inhibition [3]	CC50 [4] [µM]
COc1ccc(S(=O)(=O)N(CC(C)C)C[C@@H](O)COc2ccc3[nH]ccc3c2)cc1OC	6.00	–	–	–
COc1ccc(S(=O)(=O)N(CC(C)C)C[C@@H](O)COc2ccc3sccc3c2)cc1OC	7.22	inactive	inactive	> 90
Cc1c(O)cccc1C(=O)N[C@@H](CSc1ccccc1)[C@H](O)CN1C[C@H]2CCCC[C@H]2C[C@H]1C(=O)NC(C)(C)C [NELFINAVIR]	8.05	–	–	–
COc1ccc(S(=O)(=O)N(CC(C)C)C[C@@H](O)COc2ccc3c(ccn3C)c2)cc1OC	< 3.00	–	–	–
COc1ccc(S(=O)(=O)N(CC(C)C)C[C@@H](O)COc2ccc3c(ccn3Cc3ccccc3)c2)cc1OC	< 3.00	–	–	–
COc1ccc(S(=O)(=O)N(CC(C)C)C[C@@H](O)COc2ccc3occc3c2)cc1OC	3.89	–	–	–
